Results published in article PMC12504763, “Antiproliferation, 3D-multicellular spheroid and VEGFR-2 inhibitory properties of spiroindolin-2-ones with phosphonate function” (Scientific Reports, 2025).
Where two headings read alike, the source gives them in different places.

Key:
TNF-α [1] = test: TNF-α inhibitory properties (ELISA), MCF7 cell lysate; format: cell-based, human; conditions: at 10 μM; for TNF-α pg/mL (± SEM) MCF7: control 83.26 ± 1.1
[2] = test system: A549 (lung) cancer cell line; test: 2D-monolayer antiproliferation (MTT) against A549; format: cell-based, human; conditions: for IC50: Homo sapiens, MTT, 72 h incubation, A549 lung, read-out: IC50, μM ± SEM A549; for SI (selectivity index) A549: IC50 of RPE1 normal cell/IC50 of A549
TNF-α [3] = test: TNF-α inhibitory properties (ELISA), HCT116 cell lysate; format: cell-based, human; conditions: for TNF-α % inhibition HCT116 / TNF-α pg/mL (± SEM) HCT116: at 10 μM; for TNF-α pg/mL (± SEM) HCT116: control 95.74 ± 0.5
[4] = test system: PaCa2 (pancreatic) cancer cell line; test: 2D-monolayer antiproliferation (MTT) against PaCa2; format: cell-based, human; conditions: for 1/(observed property): 1/observed IC50 (μM), PaCa2; for IC50: Homo sapiens, PaCa-2, MTT, 72 h incubation, PaCa2 pancreatic, read-out: IC50, μM ± SEM PaCa2; for SI (selectivity index) PaCa2: IC50 of RPE1 normal cell/IC50 of PaCa2
VEGFR-2 [5] = molecular target: T1, VEGFR-2 (Homo sapiens, UniProt P35968); test: cell-based; format: cell-based; conditions: for inhibition at 10 µM: PaCa-2, PaCa2; for VEGFR-2 pg/mL ± SEM PaCa2: at 10 μM, control 326.80 ± 1.9
T1 construct: endogenous in cells; host or cells: HCT116, PaCa2, MCF7 (human cancer cell lines, ATCC origin)

[6] = test system: RPE1 (normal human immortalized retinal pigment epithelial cell line); test: cells; format: cell-based; conditions: for IC50: Homo sapiens, RPE-1, MTT, normal RPE1 cell, read-out: IC50, μM ± SEM RPE1
COX-2 = molecular target: T2, COX-2 (Homo sapiens, UniProt P35354); test: biochemical; conditions: for inhibition at 10 µM: 3 replicates, read-out: % Inhibition of COX-2 ± SEM; for SI (selectivity index, COX-2/COX-1): at 10 μM
T2 construct: purchased BioVision incorporated USA K548–100
T2 sequence (P35354 18-604): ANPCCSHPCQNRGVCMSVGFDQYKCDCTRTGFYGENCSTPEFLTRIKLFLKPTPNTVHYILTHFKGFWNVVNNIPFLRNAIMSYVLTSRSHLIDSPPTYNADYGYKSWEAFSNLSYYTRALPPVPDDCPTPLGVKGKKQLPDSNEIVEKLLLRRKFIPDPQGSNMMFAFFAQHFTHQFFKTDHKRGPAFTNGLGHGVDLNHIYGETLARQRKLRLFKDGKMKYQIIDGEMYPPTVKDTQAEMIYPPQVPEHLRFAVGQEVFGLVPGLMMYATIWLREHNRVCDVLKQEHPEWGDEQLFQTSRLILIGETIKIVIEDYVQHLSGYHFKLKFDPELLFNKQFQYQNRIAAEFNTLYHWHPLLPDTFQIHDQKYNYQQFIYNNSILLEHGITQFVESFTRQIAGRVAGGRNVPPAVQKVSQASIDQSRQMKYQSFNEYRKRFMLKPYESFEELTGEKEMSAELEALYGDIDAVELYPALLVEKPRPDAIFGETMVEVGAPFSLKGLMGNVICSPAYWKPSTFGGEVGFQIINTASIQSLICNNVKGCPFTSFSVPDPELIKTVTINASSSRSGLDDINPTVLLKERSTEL

[7] = test system: MCF7 (breast) cancer cell line; test: 2D-monolayer antiproliferation (MTT) against MCF7; format: cell-based, human; conditions: for IC50: Homo sapiens, MTT, 72 h incubation, MCF7 breast, read-out: IC50, μM ± SEM MCF7; for SI (selectivity index) MCF7: IC50 of RPE1 normal cell/IC50 of MCF7
VEGFR-2 [8] = molecular target: T1, VEGFR-2; test: cell-based; format: cell-based; conditions: for inhibition at 10 µM: MCF7; for VEGFR-2 pg/mL ± SEM MCF7: at 10 μM, control 258.70 ± 2.3
[9] = test system: HCT116 (colon) cancer cell line; test: 2D-monolayer antiproliferation (MTT) against HCT116; format: cell-based, human; conditions: for IC50: Homo sapiens, HCT-116; for SI (selectivity index) HCT116: IC50 of RPE1 normal cell/IC50 of HCT116
VEGFR-2 [10] = molecular target: T1, VEGFR-2; test: cell-based; format: cell-based; conditions: for inhibition at 10 µM: HCT-116, HCT116; for VEGFR-2 pg/mL ± SEM HCT116: at 10 μM, control 317.80 ± 3.5
COX-1 = molecular target: T3, COX-1 (Ovis aries, UniProt P05979); test: biochemical; conditions: 3 replicates, read-out: % Inhibition of COX-1 ± SEM
T3 construct: purchased BioVision incorporated USA K548–100
T3 sequence (P05979 25-600): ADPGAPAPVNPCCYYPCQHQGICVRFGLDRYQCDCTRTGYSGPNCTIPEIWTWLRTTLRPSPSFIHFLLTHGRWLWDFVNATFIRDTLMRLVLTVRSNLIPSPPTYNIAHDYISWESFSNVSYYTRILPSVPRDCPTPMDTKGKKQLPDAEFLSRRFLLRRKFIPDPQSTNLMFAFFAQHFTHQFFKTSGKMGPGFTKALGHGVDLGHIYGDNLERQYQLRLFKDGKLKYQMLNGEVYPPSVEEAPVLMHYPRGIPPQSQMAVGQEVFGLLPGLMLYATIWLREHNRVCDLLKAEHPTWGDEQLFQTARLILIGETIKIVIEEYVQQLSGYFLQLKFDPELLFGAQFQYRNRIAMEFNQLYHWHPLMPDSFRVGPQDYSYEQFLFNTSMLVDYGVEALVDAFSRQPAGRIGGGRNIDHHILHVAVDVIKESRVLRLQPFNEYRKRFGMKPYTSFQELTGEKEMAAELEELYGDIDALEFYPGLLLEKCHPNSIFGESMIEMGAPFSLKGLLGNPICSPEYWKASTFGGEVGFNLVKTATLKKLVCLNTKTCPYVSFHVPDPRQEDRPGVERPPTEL

TNF-α [11] = test: TNF-α inhibitory properties (ELISA), PaCa2 cell lysate; format: cell-based, human; conditions: at 10 μM; for TNF-α pg/mL (± SEM) PaCa2: control 111.8 ± 2.0
[12] = MTT, 72 h incubation, HCT116 colon, read-out: IC50, μM ± SEM HCT116
[13] = log of observed IC50 (μM), HCT116, read-out: Log(observed property) (converted)

T1 sequence (P35968 20-1356): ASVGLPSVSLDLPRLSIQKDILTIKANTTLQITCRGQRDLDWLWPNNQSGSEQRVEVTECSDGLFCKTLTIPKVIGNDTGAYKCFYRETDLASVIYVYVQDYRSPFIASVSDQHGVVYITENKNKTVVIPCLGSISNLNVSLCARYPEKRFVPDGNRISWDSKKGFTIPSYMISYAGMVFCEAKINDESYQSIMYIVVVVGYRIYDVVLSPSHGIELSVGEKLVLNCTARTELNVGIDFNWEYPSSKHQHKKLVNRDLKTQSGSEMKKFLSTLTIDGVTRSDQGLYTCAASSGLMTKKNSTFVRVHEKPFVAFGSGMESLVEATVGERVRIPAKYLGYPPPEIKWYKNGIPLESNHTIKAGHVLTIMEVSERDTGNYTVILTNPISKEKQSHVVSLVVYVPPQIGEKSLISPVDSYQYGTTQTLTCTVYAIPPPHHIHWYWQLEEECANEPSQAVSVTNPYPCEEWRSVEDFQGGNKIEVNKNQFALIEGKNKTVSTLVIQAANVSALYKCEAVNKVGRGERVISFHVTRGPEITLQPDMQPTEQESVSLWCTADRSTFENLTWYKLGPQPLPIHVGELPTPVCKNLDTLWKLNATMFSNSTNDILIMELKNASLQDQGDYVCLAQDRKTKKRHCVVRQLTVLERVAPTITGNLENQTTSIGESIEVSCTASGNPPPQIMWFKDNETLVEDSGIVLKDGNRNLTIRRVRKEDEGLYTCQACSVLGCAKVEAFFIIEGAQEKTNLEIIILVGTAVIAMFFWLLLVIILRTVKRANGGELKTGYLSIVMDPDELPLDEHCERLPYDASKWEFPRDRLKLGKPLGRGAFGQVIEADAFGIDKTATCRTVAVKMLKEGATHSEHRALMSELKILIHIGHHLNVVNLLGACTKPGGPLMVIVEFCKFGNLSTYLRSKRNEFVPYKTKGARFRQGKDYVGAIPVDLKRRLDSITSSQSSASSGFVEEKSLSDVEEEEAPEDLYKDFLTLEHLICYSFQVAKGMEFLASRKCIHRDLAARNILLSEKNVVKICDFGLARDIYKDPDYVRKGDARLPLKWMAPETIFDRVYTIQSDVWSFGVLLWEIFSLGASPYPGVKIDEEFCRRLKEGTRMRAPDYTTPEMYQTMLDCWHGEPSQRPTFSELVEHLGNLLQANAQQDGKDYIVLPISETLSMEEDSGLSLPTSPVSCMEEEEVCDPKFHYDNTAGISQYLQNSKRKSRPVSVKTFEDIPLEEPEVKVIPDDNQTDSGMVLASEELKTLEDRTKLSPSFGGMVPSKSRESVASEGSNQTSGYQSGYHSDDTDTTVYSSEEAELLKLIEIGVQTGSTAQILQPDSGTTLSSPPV

Row | SMILES | TNF-α % inhibition MCF7 (TNF-α [1]) [%] | TNF-α pg/mL (± SEM) MCF7 (TNF-α [1]) [pg/mL] | IC50 [2] [µM] | SI (selectivity index) A549 [2] | TNF-α % inhibition HCT116 (TNF-α [3]) [%] | TNF-α pg/mL (± SEM) HCT116 (TNF-α [3]) [pg/mL] | IC50 [4] [µM] | SI (selectivity index) PaCa2 [4] | inhibition at 10 µM (VEGFR-2 [5]) [%] | VEGFR-2 pg/mL ± SEM PaCa2 (VEGFR-2 [5]) [pg/mL] | IC50 [6] [µM] | inhibition at 10 µM (COX-2) [%] | IC50 [7] [µM] | SI (selectivity index) MCF7 [7] | inhibition at 10 µM (VEGFR-2 [8]) [%] | VEGFR-2 pg/mL ± SEM MCF7 (VEGFR-2 [8]) [pg/mL] | IC50 [9, 12] [µM] | SI (selectivity index) HCT116 [9] | inhibition at 10 µM (VEGFR-2 [10]) [%] | VEGFR-2 pg/mL ± SEM HCT116 (VEGFR-2 [10]) [pg/mL] | further results
1 | CCOP(=O)(OCC)N1C/C(=C\c2ccc(F)cc2)C(=O)C2(C1)C(c1ccc(F)cc1)CN(C)C21C(=O)Nc2ccc(Cl)cc21 (centres unmarked) [Compound 17f, Diethyl (E)-[5-chloro-5′′-(4-fluorobenzylidene)-4′-(4-fluorophenyl)-1′-methyl-2,4′′-dioxodispiro[indoline-3,2′-pyrrolidine-3′,3′′-piperidin]-1′′-yl]phosphonate] | 1.0 | 82.45 ± 4.0 | > 50 | < 0.8 | 10.7 | 85.46 ± 1.3 | 5.25 ± 0.224 | 7.6 | 91.6 | 27.53 ± 1.1 | 39.9 ± 1.16 | 60.8 ± 2.7 | 5.29 ± 0.175 | 7.5 | 75.6 | 63.20 ± 0.9 | 3.72 ± 0.099 | 10.7 | 86.2 | 43.70 ± 0.9 | activity fold of sunitinib [4]: 3.2 fold; 1/(observed property) [4]: 0.1904; selectivity index (SI) ([6]; IC50 against RPE1 compared to the tested cancer cell line(s), in words): high selectivity index; SI (selectivity index, COX-2/COX-1) (COX-2): 1.01; inhibition at 10 µM (COX-1): 57.6 ± 1.1%; TNF-α pg/mL (± SEM) PaCa2 (TNF-α [11]): 109.8 ± 4.7 pg/mL
2 | CCOP(=O)(OCC)N1C/C(=C\c2ccc(F)cc2)C(=O)C2(C1)C(c1ccc(F)cc1)CN(C)C21C(=O)Nc2ccc(C)cc21 (centres unmarked) [Compound 17g, Diethyl (E)-(5′′-(4-fluorobenzylidene)-4′-(4-fluorophenyl)-1′,5-dimethyl-2,4′′-dioxodispiro[indoline-3,2′-pyrrolidine-3′,3′′-piperidin]-1′′-yl)phosphonate] | 0.3 | 83.0 ± 3.2 | 8.15 ± 0.277 | 2.3 | 14.6 | 81.75 ± 2.1 | 6.09 ± 0.132 | 3.1 | 77.7 | 72.80 ± 0.9 | 19 ± 0.647 | 51.8 ± 2.8 | 5.43 ± 0.152 | 3.5 | 75 | 64.80 ± 0.5 | 5.01 ± 0.364 | 3.8 | 69 | 98.40 ± 1.2 | 1/(observed property) [4]: 0.1641; IC50 [9, 13]: 5.01 µM; inhibition at 10 µM (COX-1): 62.1 ± 3.1%; TNF-α % inhibition PaCa2 (TNF-α [11]): 12.9%; TNF-α pg/mL (± SEM) PaCa2 (TNF-α [11]): 97.4 ± 3.6 pg/mL
3 | CCOP(=O)(OCC)N1C/C(=C\c2ccc(Cl)cc2)C(=O)C2(C1)C(c1ccc(Cl)cc1)CN(C)C21C(=O)Nc2ccccc21 (centres unmarked) [Compound 17h, Diethyl (E)-[5′′-(4-chlorobenzylidene)-4′-(4-chlorophenyl)-1′-methyl-2,4′′-dioxodispiro[indoline-3,2′-pyrrolidine-3′,3′′-piperidin]-1′′-yl]phosphonate] | 74.0 | 21.65 ± 3.1 | 4.15 ± 0.288 | 2.0 | 80.7 | 18.45 ± 1.1 | 6.35 ± 0.17 | 1.3 | 94.4 | 18.25 ± 0.6 | 8.15 ± 0.675 | 51.5 ± 3.1 | 4.07 ± 0.054 | 2.0 | 79.6 | 52.70 ± 0.7 | 3.08 ± 0.165 | 2.6 | 83.7 | 51.74 ± 1.5 | TNF-α inhibition fold of the standard ibuprofen (TNF-α [3]; 10 μM): 3.6 fold; TNF-α inhibition fold of the standard indomethacin (TNF-α [3]; 10 μM): 1.9 fold; SI (selectivity index, COX-2/COX-1) (COX-2): 1.06; potency fold of the standard drug 5-fluorouracil ([9]; HCT116, ratio of IC50): 6.6 fold; potency fold of the standard drug sunitinib ([9]; HCT116, ratio of IC50): 3.1 fold; IC50 [9, 13]: 3.08 µM; inhibition at 10 µM (COX-1): 53.5 ± 2.8%; TNF-α % inhibition PaCa2 (TNF-α [11]): 76.3%; TNF-α pg/mL (± SEM) PaCa2 (TNF-α [11]): 26.5 ± 0.7 pg/mL
